Measured values taken from article PMC9257625 (RSC Chemical Biology, 2022).
Positions of bridges follow the written chain, without caps; N, C: chain ends. Non-standard residues stand in square brackets, D forms with d. Residues, ends and D or L forms follow the SMILES beside them. S5 = C=CCCC[C@](C)(N)C(=O)O

Tests used:
proteinase K = proteinase K (Parengyodontium album, UniProt P06873); assay: Protease stability assay, proteinase K; type: in vitro ADME, fungal
[1] = Circular dichroism spectroscopy, percent helicity; type: physicochemical; conditions: CD θ220, 10 mM phosphate buffer pH 7.4, 50 μM peptide
pepsin = pepsin (Sus scrofa, UniProt P00791); assay: Protease stability assay, pepsin; type: in vitro ADME, porcine; conditions: acidic pH
Chain of pepsin (P00791 60-385): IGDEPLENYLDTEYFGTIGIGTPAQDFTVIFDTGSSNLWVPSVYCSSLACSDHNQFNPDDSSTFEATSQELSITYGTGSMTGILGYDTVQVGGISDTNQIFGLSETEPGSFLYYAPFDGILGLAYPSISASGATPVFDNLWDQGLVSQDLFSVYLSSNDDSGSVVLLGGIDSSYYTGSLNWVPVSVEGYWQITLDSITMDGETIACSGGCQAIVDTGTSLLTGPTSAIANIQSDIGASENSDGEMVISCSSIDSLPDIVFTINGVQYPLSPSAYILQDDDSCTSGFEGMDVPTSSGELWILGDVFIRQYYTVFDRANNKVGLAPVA

Chain of proteinase K (P06873 106-384): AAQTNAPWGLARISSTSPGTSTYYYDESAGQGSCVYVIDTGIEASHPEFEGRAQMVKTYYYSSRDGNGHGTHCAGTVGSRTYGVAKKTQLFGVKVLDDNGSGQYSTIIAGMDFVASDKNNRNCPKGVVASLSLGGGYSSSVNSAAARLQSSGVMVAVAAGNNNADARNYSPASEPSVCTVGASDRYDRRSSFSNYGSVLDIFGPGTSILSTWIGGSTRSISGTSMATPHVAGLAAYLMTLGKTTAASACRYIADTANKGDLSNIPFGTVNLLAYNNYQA

| SMILES | Cleavage by / resistance to proteinase K (in words) (proteinase K) | Percent helicity [1] [%] | Cleavage by pepsin (in words) (pepsin) |
| --- | --- | --- | --- |
| CC(=O)N[C@@H](CC(C)C)C(=O)N[C@H](C(=O)N[C@@H](Cc1ccccc1)C(=O)N[C@H]1CCCn2cc(nn2)-c2cccc(c2)-c2cn(nn2)CCC[C@@H](C(=O)N[C@@H](CO)C(N)=O)NC(=O)[C@H](CC(C)C)NC(=O)[C@H](CCC(N)=O)NC(=O)[C@H](C)NC(=O)[C@H](Cc2c[nH]c3ccccc23)NC(=O)[C@H](Cc2ccc(O)cc2)NC(=O)[C@H](CCC(=O)O)NC1=O)[C@@H](C)O [Peptide 4a] | partially vulnerable to cleavage | 27 | completely cleaved |
| CC(=O)N[C@@H](CC(C)C)C(=O)N[C@H](C(=O)N[C@@H](Cc1ccccc1)C(=O)N[C@@]1(C)CCCC=CCCC[C@@](C)(C(=O)N[C@@H](CCC(N)=O)C(=O)N[C@@H](CC(C)C)C(=O)N[C@H](C(=O)N[C@@H](CO)C(N)=O)[C@@H](C)O)NC(=O)[C@H](Cc2c[nH]c3ccccc23)NC(=O)[C@H](Cc2ccc(O)cc2)NC(=O)[C@H](CCC(=O)O)NC1=O)[C@@H](C)O [Peptide 2a] (Ac-LTF[S5]EYW[S5]QLTS-NH2; staple 4-8) |  | ~60 |  |
